Results on 20 compounds are retold here after PubChem BioAssay AID328 (DTP/NCI, 2004).

This experiment concerns BDF1 mice, P388 leukemia ip, median survival T/C. As to the kind of experiment: NCI In Vivo Anticancer Drug Screen. Data for tumor model P388 Leukemia (intraperitoneal) in B6D2F1 (BDF1) mice. The note with it: endpoint: median survival time, higher = longer survival. In short, it runs like this:
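Each value expresses how treatment altered survival: treated-mouse outcome over vehicle-mouse outcome, both groups bearing the transplanted tumour.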

Where [1] appears, read: dose: 50.0 mg/kg/injection, schedule: Q01DX009 (ip), vehicle: saline with Tween-80.
The mark [2] stands for this setting: dose: 100.0 mg/kg/injection, schedule: Q01DX009 (ip), vehicle: saline with Tween-80.
[3] abbreviates: dose: 200.0 mg/kg/injection, schedule: Q01DX009 (ip), vehicle: saline with Tween-80.
Setting [4] is: dose: 50.0 mg/kg/injection, schedule: Q01DX009 (ip), vehicle: saline.
Setting [5] is: dose: 100.0 mg/kg/injection, schedule: Q01DX009 (ip), vehicle: saline.
[6] abbreviates: dose: 200.0 mg/kg/injection, schedule: Q01DX009 (ip), vehicle: saline.
Where [7] appears, read: dose: 100.0 mg/kg/injection, schedule: Q04DX003 (ip), vehicle: saline.
The mark [8] stands for this setting: dose: 200.0 mg/kg/injection, schedule: Q04DX003 (ip), vehicle: saline.
The mark [9] stands for this setting: dose: 25.0 mg/kg/injection, schedule: Q01DX009 (ip), vehicle: saline.
Setting [10] is: dose: 100.0 mg/kg/injection, schedule: Q04DX003 (ip), vehicle: saline with Tween-80.
Setting [11] is: dose: 200.0 mg/kg/injection, schedule: Q04DX003 (ip), vehicle: saline with Tween-80.
Setting [12] is: dose: 400.0 mg/kg/injection, schedule: Q04DX003 (ip), vehicle: saline with Tween-80.

Molecules are shown by their SMILES. Values joined by “and” are separate entries in the source; they are usually repeats but may differ in a detail not shown here. Equal values may be shown once. Toxic doses and inconclusive results are not listed.

For the compound `COc1cc2cc(c1Cl)N(C)C(=O)CC(OC(=O)C(F)(F)F)C1(C)OC1C(C)C1CC(O)(NC(=O)O1)C(OC)C=C/C=C(\C)C2` (stereo unspecified), the T/C reads like this: (dose: 0.8 micrograms/kg/injection, schedule: Q01DX009 (ip), vehicle: saline + alcohol) 110 % of control; (dose: 1.5 micrograms/kg/injection, schedule: Q01DX009 (ip), vehicle: saline + alcohol) 100 % of control; (dose: 1.8 micrograms/kg/injection, schedule: Q01DX009 (ip), vehicle: saline + alcohol) 107 % of control; (dose: 3.1 micrograms/kg/injection, schedule: Q01DX009 (ip), vehicle: saline + alcohol) 98 % of control and 100 % of control; (dose: 6.2 micrograms/kg/injection, schedule: Q01DX009 (ip), vehicle: saline + alcohol) 98 % of control and 108 % of control; (dose: 12.5 micrograms/kg/injection, schedule: Q01DX009 (ip), vehicle: saline + alcohol) 96 % of control and 120 % of control. Moreover, the T/C by setting is: (dose: 25.0 micrograms/kg/injection, schedule: Q01DX009 (ip), vehicle: saline + alcohol) 96 % of control; (dose: 50.0 micrograms/kg/injection, schedule: Q01DX009 (ip), vehicle: saline + alcohol) 107 % of control; (dose: 100.0 micrograms/kg/injection, schedule: Q01DX009 (ip), vehicle: saline + alcohol) 91 % of control and 108 % of control; (dose: 200.0 micrograms/kg/injection, schedule: Q01DX009 (ip), vehicle: saline + alcohol) 91 % of control; (dose: 400.0 micrograms/kg/injection, schedule: Q01DX009 (ip), vehicle: saline + alcohol) 117 % of control.
For the compound `O=C(CSCC(=O)c1ccc(Br)cc1)c1ccc(Br)cc1`, the T/C was 100 % of control (dose: 100.0 mg/kg/injection, schedule: Q01DX001 (ip), vehicle: Klucel (hydroxypropylcellulose) (HPC)); 100 % of control (dose: 200.0 mg/kg/injection, schedule: Q01DX001 (ip), vehicle: Klucel (hydroxypropylcellulose) (HPC)); 100 % of control (dose: 400.0 mg/kg/injection, schedule: Q01DX001 (ip), vehicle: Klucel (hydroxypropylcellulose) (HPC)).
Consider `O=C(O)Cc1nc(Cl)ccc1Cl`, for which the T/C is, setting by setting: under setting [1], 106 % of control; under setting [2], 100 % of control; under setting [3], 92 % of control.
With `CCCC1CC(C(=O)NC(C(C)Cl)C2OC(SC)C(O)C(O)C2O)N(C)C1` (stereo unspecified), the T/C is 100 % of control under setting [4], 94 % of control under setting [5] and 102 % of control under setting [6].
As for `CCCCCCCCCCCCCCCCN(C)c1ccc(C=O)cc1`, the T/C under setting [5] is 104 % of control and 110 % of control; the T/C under setting [7] was 118 % of control; the T/C under setting [6] is 100 % of control and 105 % of control; the T/C under setting [8] was 109 % of control; the T/C (dose: 400.0 mg/kg/injection, schedule: Q01DX009 (ip), vehicle: saline) was 113 % of control; the T/C (dose: 400.0 mg/kg/injection, schedule: Q04DX003 (ip), vehicle: saline) is 109 % of control.
For `CCOC(=O)c1c(N)ssc1=S`, the T/C reads like this: (dose: 6.25 mg/kg/injection, schedule: Q01DX009 (ip), vehicle: saline) 101 % of control; (dose: 12.5 mg/kg/injection, schedule: Q01DX009 (ip), vehicle: saline) 113 % of control; under setting [9], 100 % of control; under setting [4], 111 % of control; under setting [5], 113 % of control; under setting [7], 112 % of control. The T/C runs as follows: under setting [6], 93 % of control and 104 % of control; under setting [8], 86 % of control; (dose: 300.0 mg/kg/injection, schedule: Q01DX009 (ip), vehicle: saline) 91 % of control.
`CCOP(=O)(O)OCC.[Al]`: the T/C under setting [1] was 100 % of control, the T/C under setting [2] was 103 % of control and the T/C under setting [3] is 103 % of control.
Regarding `O=S(=O)(CCl)OCCCl`, the T/C is, setting by setting: (dose: 25.0 mg/kg/injection, schedule: Q01DX009 (ip), vehicle: saline with Tween-80) 123 % of control; under setting [1], 107 % of control; under setting [2], 214 % of control; under setting [3], 177 % of control.
Regarding `NC(=S)N/N=C\c1nccc2c(C(F)(F)F)cccc12`, under “dose: 25.0 mg/kg/injection, schedule: Q04DX003 (ip), vehicle: saline with Tween-80”, the T/C was 106 % of control.
With `O=C(Nc1nnc(C(F)(F)F)s1)c1c(F)cccc1F`, under setting [1], the T/C was 92 % of control.
Take `CC1SCC(=O)N1c1nccs1` (stereo unspecified): the T/C under setting [1] is 99 % of control, the T/C under setting [2] is 100 % of control and the T/C under setting [3] is 102 % of control.
Take `Nc1ccc(Cl)cc1C(=O)c1ccc[nH]1`: the T/C is 100 % of control (dose: 100.0 mg/kg/injection, schedule: Q01DX009 (ip), vehicle: Klucel (hydroxypropylcellulose) (HPC)); 100 % of control (dose: 100.0 mg/kg/injection, schedule: Q04DX003 (ip), vehicle: Klucel (hydroxypropylcellulose) (HPC)); 95 % of control (dose: 200.0 mg/kg/injection, schedule: Q01DX009 (ip), vehicle: Klucel (hydroxypropylcellulose) (HPC)); 100 % of control (dose: 200.0 mg/kg/injection, schedule: Q04DX003 (ip), vehicle: Klucel (hydroxypropylcellulose) (HPC)); 100 % of control (dose: 400.0 mg/kg/injection, schedule: Q01DX009 (ip), vehicle: Klucel (hydroxypropylcellulose) (HPC)); 95 % of control (dose: 400.0 mg/kg/injection, schedule: Q04DX003 (ip), vehicle: Klucel (hydroxypropylcellulose) (HPC)).
In the case of `CC(=O)OCc1c(COC(C)=O)c(-c2ccc(Cl)c(Cl)c2)n2c1CCC2`, the T/C (dose: 12.5 mg/kg/injection, schedule: Q01DX009 (ip), vehicle: Klucel (hydroxypropylcellulose) (HPC)) was 114 % of control.
Turning to `C#CC(C)OCC1CNC(=S)O1` (stereo unspecified), the T/C was 110 % of control (dose: 50.0 mg/kg/injection, schedule: Q04DX003 (ip), vehicle: saline with Tween-80); 100 % of control under setting [10]; 115 % of control under setting [11]; 110 % of control under setting [12].
As for `OC1CC2CCC(C1)N2CCCN1c2ccccc2Sc2ccc(Cl)cc21` (stereo unspecified), the T/C is, setting by setting: under setting [9], 104 % of control; under setting [4], 91 % of control; under setting [7], 90 % of control.
As for `CN(C)c1ccc2c(c1)Cc1cc(N=C3C=CC(=O)O3)ccc1-2`, the T/C by setting is: (dose: 1.56 mg/kg/injection, schedule: Q01DX009 (ip), vehicle: Klucel (hydroxypropylcellulose) (HPC)) 109 % of control; (dose: 3.12 mg/kg/injection, schedule: Q01DX009 (ip), vehicle: Klucel (hydroxypropylcellulose) (HPC)) 100 % of control; (dose: 6.25 mg/kg/injection, schedule: Q01DX009 (ip), vehicle: Klucel (hydroxypropylcellulose) (HPC)) 90 % of control; under setting [9], 92 % of control; under setting [4], 100 % of control.
Consider `O=C1/C(=C/c2ccco2)CCC2CC3(CCC12)OCCO3` (stereo unspecified), for which the T/C is 108 % of control (dose: 100.0 mg/kg/injection, schedule: Q04DX003 (ip), vehicle: other); 91 % of control (dose: 200.0 mg/kg/injection, schedule: Q04DX003 (ip), vehicle: other); 108 % of control (dose: 400.0 mg/kg/injection, schedule: Q04DX003 (ip), vehicle: other).
Consider `CC(=O)n1cc(C2CC(=O)OC3=C2C(=O)CCC3)c2ccccc21` (stereo unspecified), for which the T/C is, setting by setting: under setting [2], 94 % of control; under setting [10], 98 % of control; under setting [3], 100 % of control; under setting [11], 93 % of control; (dose: 400.0 mg/kg/injection, schedule: Q01DX009 (ip), vehicle: saline with Tween-80) 102 % of control; under setting [12], 93 % of control.
As for `COc1ccccc1OCC(C)=O`, the T/C is, setting by setting: (dose: 178.0 mg/kg/injection, schedule: Q04DX003 (ip), vehicle: saline with Tween-80) 104 % of control; (dose: 266.0 mg/kg/injection, schedule: Q04DX003 (ip), vehicle: saline with Tween-80) 104 % of control; under setting [12], 114 % of control; (dose: 600.0 mg/kg/injection, schedule: Q04DX003 (ip), vehicle: saline with Tween-80) 104 % of control.
In the case of `CN(C(N)=O)c1c(O)nc(N)[nH]c1=O`, the T/C was 106 % of control (dose: 12.5 mg/kg/injection, schedule: Q01DX009 (ip), vehicle: water); 106 % of control (dose: 25.0 mg/kg/injection, schedule: Q04DX003 (ip), vehicle: water); 88 % of control (dose: 50.0 mg/kg/injection, schedule: Q01DX009 (ip), vehicle: water); 100 % of control (dose: 50.0 mg/kg/injection, schedule: Q04DX003 (ip), vehicle: water); 91 % of control (dose: 100.0 mg/kg/injection, schedule: Q01DX009 (ip), vehicle: water); 106 % of control (dose: 100.0 mg/kg/injection, schedule: Q04DX003 (ip), vehicle: water). In addition, the T/C (dose: 200.0 mg/kg/injection, schedule: Q04DX003 (ip), vehicle: water) was 106 % of control.
